This is an account of results in patent publication US10512670B2, “Pharmaceutical composition for preventing or treating hair loss comprising chemokine (C-X-C motif) ligand 1 (CXCL1) protein or CXCL1 protein and minoxidil as active ingredient” (SCM LIFESCIENCE CO., LTD., priority 2016, dated 2019).

The subject of assay [1] is C3H/HeN mouse. Briefly: hair generation test in hair-removed mouse, application of minoxidil and CXCL1 protein to back skin. It is filed as in vivo. The note with it: applied to back skin for 14 days (FIG. 5); PBS-alone 20 mg. As to the method: In addition, in the case of combining and using the minoxidil and the CXCL1 protein which were commercialized as a hair generation agent, an experiment for verifying whether the hair generation effect may be better was performed. First, for an experiment for hair regeneration, long hair of a 7-week-old C3H/HeN mouse and the like was shortly cut by using a hair cutting machine and thereafter, the hair was completely removed by using a hair removal agent. After the hair-removed mouse was stabilized for one day, a recombinant protein CXCL1 was mixed with 2% minoxidil (Women's Rogaine, Johnson & Johnson Healthcare Products, USA) to be 1 μg/ml and 10 μg/ml, respectively. The mixture of the minoxidil and the CXCL1 protein was applied to the back skin of the hair-removed mouse for 14 days by […] per day. As a control, a PBS-alone applied group and a 2% minoxidil-alone treated group were set. The hair generation in the back of the mouse was tracked and observed for 14 days and newly generated hair was obtained again and the weight was measured, and the result was illustrated in FIGS. 4 and 5.

Assay [2] concerns human dermal papilla cell (DPC). Description: human dermal papilla cell (DPC) proliferation test. It is filed as cell-based. The note with it: 1 ng/ml or 5 ng/ml treated to DPC, 40 hrs, compared to cells without CXCL1 protein (FIG. 1). As to the method:
A human dermal papilla cell (DPC) proliferation test which is a representative in vitro cell test system for measuring hair proliferation was performed. 1 ng/ml or 5 ng/ml of the CXCL1 protein in Example 1 was treated to DPC, proliferation for 40 hrs was measured, and the result was illustrated in FIG. 1.

In assay [3] the test system is C3H/HeN mouse. Description: hair generation test in hair-removed mouse, subcutaneous injection of CXCL1 protein. It is filed as in vivo. The method, then: For a test for verifying a hair generation effect, the back of a 7-week-old C3H/HeN mouse was stabilized by removing hair by using a hair removal agent. After one day, 100 ng/ml of a human chemokine (C-X-C motif) ligand 1 (CXCL1) (SEQ ID NO:1) protein was subcutaneously injected to the back once. As a control, phosphate buffered saline (PBS) including 0.1% BSA at the same volume lysed with the CXCL1 protein was subcutaneously injected. Thereafter, the hair generation of the back of the hair-removed mouse was traced and observed for 15 days. A photograph of tracing and observing the back of the mouse with hair generation was illustrated in FIG. 2.
Further, after 15 days, the hair of the back of the mouse with newly hair generation was removed by using a knife and then the result of measuring the weight of the obtained hair was illustrated in FIG. 3.

For `Nc1cc(N2CCCCC2)nc(N)[n+]1[O-]` [minoxidil], the “amount of newly generated hair” value in the assay with C3H/HeN mouse [1] is “about 30 mg”.
As for “chemokine (C-X-C motif) ligand 1 (CXCL1) [CXCL1 protein]”, the cell proliferation entry in assay [2] is listed as “cell proliferation was increased”. The molecule also had a hair weight in the assay on C3H/HeN mouse [3] (100 ng/ml subcutaneously injected once, newly generated hair after 15 days (FIG. 3), control 40 mg) of 80 mg. Besides, the “hair generation of the back (photograph)” value in the assay on C3H/HeN mouse [3] (100 ng/ml subcutaneously injected to the back once, observed for 15 days, compared with control (FIG. 2)) is recorded as “hair generation was more excellent”. In the assay with C3H/HeN mouse [3] (CXCL1 protein-alone administration), the “new hair relative to PBS-administered group” value is “about two times greater”.
